Each structure is given as a SMILES string.

For orientation: EC50 means the concentration needed to bring the measured effect to its halfway point. Low values mean greater potency, high ones weaker potency.

This experiment has as its system Cisd2 promoter with firefly luciferase reporter. The experiment in a line: Cisd2-luciferase reporter assay in HEK293-CISD2 cells. The format is cell-based. The note with it: Homo sapiens, 24 hours incubation, luciferase luminescence. As to the method: A typical in vitro screening method includes the following steps: (i) obtaining an initial level of Cisd2 in a batch of human embryonic kidney cells 293 (HEK-293 cells) that express Cisd2, (ii) treating the batch of HEK-293 cells with a compound of this invention, and (iii) analyzing the level of Cisd2 after the treatment, thereby determining the potency of the compound as a Cisd2 activator.
Compounds 1-109 were tested for increasing the level of Cisd2 in human embryonic kidney cells 293 (HEK293), a transfected cell line expressing Cisd2, using the Cisd2-luciferase reporter assay as follows.
The transfected HEK293 cells stably expressed Cisd2 promoter with firefly luciferase reporter (HEK293-CISD2). They were kept in Dulbecco's modified Eagle's medium (DMEM) (Gibco, New York, NY, USA). Culture medium was supplemented with 10% heat-inactivated fetal bovine serum (FBS), 2 mM L-Glutamine, 1 mM sodium pyruvate, 0.1% MEM Non-Essential Amino Acids, 1 ug/ml puromycin and 1% penicillin/streptomycin (HyClone, Logan, UT, USA). The cells were maintained at 37° C. in an incubator (Thermo Fisher Scientific, New York, NY, USA) with an atmosphere of 5% CO2. The stably transfected cells were seeded in 384-well plates at a density of 3×10^3 cells/well. After incubation with tested compounds at 37° C. for 24 hours, ONE-Glo™ Luciferase Assay System (Promega, Madison, WI, USA) was added at room temperature for 5 minutes to detect any luciferase activity. Luminescence intensity was registered using plate reader Victor^2V (PerkinElmer, Boston, MA, USA).
EC50 values in this table are presented in three classes, i.e., A: <1 μM, B: 1 μM-5 μM, and C: 5 μM-10 μM.
`O=C(CS(=O)(=O)c1cc[n+]([O-])cc1)N1Cc2ccccc2C1` [Compound 44, 1-(1,3-dihydro-2H-isoindol-2-yl)-2-[(1-oxidopyridin-4-yl)sulfonyl]ethanone]: the EC50 was 5000 to 10000 nM.
Turning to `O=C(CSc1ccc(CO)s1)N1Cc2ccccc2C1` [Compound 75, 1-(1,3-dihydro-2H-isoindol-2-yl)-2-{[5-(hydroxymethyl)thiophen-2-yl]sulfanyl}ethanone], the EC50 is less than 1000 nM.
Next, `O=C(CCS(=O)(=O)c1ccccc1)N1Cc2ccccc2C1` [Compound 107, 1-(1,3-dihydro-2H-isoindol-2-yl)-3-(phenylsulfonyl)propan-1-one]: less than 1000 nM; `Nc1ccc2c(c1)CN(C(=O)CSc1ccccn1)C2` [Compound 15, 1-(5-amino-1,3-dihydro-2H-isoindol-2-yl)-2-(pyridin-2-ylsulfanyl)ethanone]: 1000 to 5000 nM.
Take `O=C(CS(=O)(=O)c1ccccc1F)N1Cc2ccc(F)cc2C1` [Compound 92, 1-(5-fluoro-1,3-dihydro-2H-isoindol-2-yl)-2-[(2-fluorophenyl)sulfonyl]ethanone]: the EC50 was less than 1000 nM.
As for `Cn1ccc(SCC(=O)N2Cc3ccccc3C2)n1` [Compound 70, 1-(1,3-dihydro-2H-isoindol-2-yl)-2-[(1-methyl-1H-pyrazol-3-yl)sulfanyl]ethanone], the figure is 1000 to 5000 nM.
As for `O=C(CS(=O)(=O)c1ccccc1)N1Cc2ccccc2C1` [Compound 45, 1-(1,3-dihydro-2H-isoindol-2-yl)-2-(phenylsulfonyl)-ethanone], the figure is less than 1000 nM; as for `O=C(CSc1ccccc1)N1Cc2ccc(F)cc2C1` [Compound 64, 1-(5-fluoro-1,3-dihydro-2H-isoindol-2-yl)-2-(phenylsulfanyl)ethanone], less than 1000 nM; as for `O=C(CSc1ccccc1F)N1Cc2cc(F)c(F)cc2C1` [Compound 65, 1-(5,6-difluoro-1,3-dihydro-2H-isoindol-2-yl)-2-[(2-fluorophenyl)sulfanyl]ethanone], less than 1000 nM.
`Cc1cnc(SCC(=O)N2Cc3ccc(F)cc3C2)s1` [Compound 12, 1-(5-fluoro-1,3-dihydro-2H-isoindol-2-yl)-2-[(5-methyl-1,3-thiazol-2-yl)sulfanyl]ethanone] displayed an EC50 of less than 1000 nM.
As to `N#Cc1ccc(SCC(=O)N2Cc3ccccc3C2)s1` [Compound 74, 5-{[2-(1,3-dihydro-2H-isoindol-2-yl)-2-oxoethyl]sulfanyl}thiophene-2-carbonitrile], the EC50 was less than 1000 nM.
Next, `O=C(CSc1nccs1)N1Cc2ccc(O)cc2C1` [Compound 3, 1-(5-hydroxy-1,3-dihydro-2H-isoindol-2-yl)-2-(1,3-thiazol-2-ylsulfanyl)ethanone]: 1000 to 5000 nM; `O=C(CSc1ccc(Cl)s1)N1Cc2ccccc2C1` [Compound 57, 2-[(5-chlorothiophen-2-yl)sulfanyl]-1-(1,3-dihydro-2H-isoindol-2-yl)ethanone]: less than 1000 nM; `Cc1ccc(SCC(=O)N2Cc3ccccc3C2)cc1` [Compound 62, 1-(1,3-dihydro-2H-isoindol-2-yl)-2-[(4-methylphenyl)sulfanyl]ethanone]: 5000 to 10000 nM.
`O=C(CSc1ccc(F)cc1F)N1Cc2ccccc2C1` [Compound 60, 2-[(2,4-difluorophenyl)sulfanyl]-1-(1,3-dihydro-2H-isoindol-2-yl)ethanone] registered an EC50 of less than 1000 nM.
On to `O=C(CS(=O)(=O)c1ccc(F)cc1)N1Cc2ccccc2C1` [Compound 87, 1-(1,3-dihydro-2H-isoindol-2-yl)-2-[(4-fluorophenyl)sulfonyl]ethanone], for which the EC50 was less than 1000 nM.
The compound `O=C(CS(=O)(=O)c1ccccc1)N1Cc2cccc(F)c2C1` [Compound 96, 1-(4-fluoro-1,3-dihydro-2H-isoindol-2-yl)-2-(phenylsulfonyl)ethanone] gave an EC50 of less than 1000 nM.
Next, `O=C(CSc1ccc(C(F)F)s1)N1Cc2ccccc2C1` [Compound 76, 2-{[5-(difluoromethyl)thiophen-2-yl]sulfanyl}-1-(1,3-dihydro-2H-isoindol-2-yl)ethanone]: 1000 to 5000 nM.

(Values after patent US11827629B2, “CDGSH iron sulfur domain 2 activators and use thereof” (National Health Research Institutes, priority 2021, dated 2023).)
